According to publication PMC4648050, “Discovery of Inhibitors of Trypanosoma brucei by Phenotypic Screening of a Focused Protein Kinase Library” (Chemmedchem, 2015):
≈ marks a conversion by molar mass, not a printed value. Read-outs that look alike come from different tables or passages of the source.

Tests used:
[1] = test system: T. b. brucei; test: Trypanosome proliferation assay; type: cell-based, Trypanosoma brucei brucei; conditions: for EC50: geometric mean of two or more determinations, standard cell viability (resazurin) assay, read-out: EC50 T. b. brucei
Description: (§1) Trypanosome and MRC5 proliferation assay: Measurement of inhibition of the proliferation of MRC5 cells (human lung fibroblasts) and T. brucei bloodstream-stage cells was performed using a modification of a cell viability assay previously described.[35, 36] Compounds ([…] to 0.5 nM) were incubated with 2×10^3 cells per well in 0.2 mL of the appropriate culture medium (MEM with 10 % foetal bovine serum for MRC5 cells) in clear 96-well plates. Plates were incubated at 37 °C in the presence of 5 % CO2 for 69 h. Resazurin was then added to a final concentration of 50 μM, and plates were incubated as above for a further 4 h before being read on a BioTek Flx800 fluorescence plate reader.

[2] = test system: MRC5 cells (human lung fibroblasts); test: MRC5 proliferation assay; type: cell-based; conditions: geometric mean of two or more determinations
Description: as §1

[3] = Kinetic aqueous solubility (laser nephelometry); type: physicochemical; conditions: Milli-Q water with 2.5% DMSO, kinetic from dmso stock, range 250–12 μM, read-out: Aq. Sol. (aqueous kinetic solubility)
Description: Solubility experiments: The kinetic aqueous solubility of the test compounds was measured using laser nephelometry. Compounds were subject to serial dilution from 10 mM to 0.5 mM in DMSO. An aliquot was then mixed with Milli-Q H2O to obtain an aqueous dilution plate with a final concentration range of 250–12 μM, with a final DMSO concentration of 2.5 %. Triplicate aliquots were transferred to a flat-bottomed polystyrene plate which was immediately read on the NEPHELOstar (BMG Lab Technologies). The amount of laser scatter caused by insoluble particulates (relative nephelometry units, RNU) was plotted against compound concentration using a segmental regression fit, with the point of inflection being quoted as the compounds′ aqueous solubility (in μM).

[4] = Intrinsic clearance in mouse liver microsomes; type: in vitro ADME; conditions: mouse hepatic microsomes, 0.5 μM compound
Description: Intrinsic clearance experiments: Test compound (0.5 μM) was incubated with female CD1 mouse liver microsomes (Xenotech LLC; 0.5 mg mL^−1 50 mM potassium phosphate buffer, pH 7.4), and the reaction started with the addition of excess NADPH (8 mg mL^−1 50 mM potassium phosphate buffer, pH 7.4). Immediately, at t0, then at 3, 6, 9, 15, and 30 min an aliquot (50 μL) of the incubation mixture was removed and mixed with MeCN (100 μL) to stop the reaction. Internal standard was added to all samples, the samples were centrifuged to sediment precipitated protein, and the plates were then sealed prior to UPLC–MS/MS analysis using a Quattro Premier XE instrument (Waters Corp., USA). XLfit (IDBS, UK) was used to calculate the exponential decay and consequently the rate constant (k) from the ratio of peak area of test compound to internal standard at each time point. The rate of intrinsic clearance [CLint, mL min^−1 (g liver)^−1] of each test compound was then calculated with Equation (3): […]
in which V [mL (mg protein)^−1] is the incubation volume per mg protein added, and microsomal protein yield is taken as 52.5 mg protein per gram of liver. Verapamil (0.5 μM) was used as a positive control to confirm acceptable assay performance.

[5] = Plasma protein binding (equilibrium dialysis); type: in vitro ADME; conditions: mouse plasma; for fraction unbound at 5 h, 10 μg g^−1: female, CD1, read-out: PPB; for fraction unbound at 5 h, 10 μg g^−1 / PPB: equilibrium dialysis
Description: Plasma protein binding experiments: In brief, a 96-well equilibrium dialysis apparatus was used to determine the free fraction in plasma for each compound (HT Dialysis LLC, Gales Ferry, CT, USA). Membranes (12-14 kDa cutoff) were conditioned in deionised H2O for 60 min, followed by conditioning in 80:20 deionised H2O/EtOH for 20 min, and then rinsed in isotonic buffer before use. Female CD1 mouse plasma was removed from the freezer and allowed to thaw on the day of experiment. Thawed plasma was then centrifuged (Allegra […], Beckman Coulter, USA), spiked with test compound (10 μg g^-1), and 150 μL aliquots (n=6 replicate determinations) loaded into the 96-well equilibrium dialysis plate. Dialysis against isotonic buffer (150 μL) was carried out for 5 h in a temperature-controlled incubator at ∼37 °C (Barworld Scientific Ltd., UK) using an orbital microplate shaker at 125 rpm (Barworld Scientific). At the end of the incubation period, aliquots of plasma or buffer were transferred to micronic tubes (Micronic B.V., the Netherlands), and the composition in each tube was balanced with control fluid such that the volume of buffer to plasma is the same. Sample extraction was performed by the addition of 400 μL MeCN containing an appropriate internal standard. Samples were allowed to mix for 1 min and then centrifuged at 3000 rpm in 96-well blocks for 15 min (Allegra […], Beckman Coulter, USA). All samples were analysed by UPLC-MS/MS on a Quattro Premier XE Mass Spectrometer (Waters Corp.). The unbound fraction was determined as the ratio of the peak area in buffer to that in plasma.

[6] = test system: T. brucei bloodstream-stage cells; test: Static–cidal (SC) assay; type: cell-based, Trypanosoma brucei brucei; conditions: for EC50 / MCC: Trypanosoma brucei; for EC50: 48 h; for MCC: static–cidal assay in triplicate, read-out: MCC (minimal cidal concentration); for mode of antiparasitic effect (in words): text and figure legend, at concentrations tested; for plateau of dose–response curve (inhibition): static–cidal dose–response curve
Description: Determination of cidality against T. brucei bloodstream-stage cells was performed using a static–cidal (SC) assay as previously reported.[26] Briefly, bloodstream-form trypanosomes were seeded into 384-well plates at 4×10^5 mL^−1 (50 μL per well), followed by immediate addition of resazurin (50 μM final) to one of the plates, and all plates were incubated at 37 °C, 5 % CO2. After 4 h the t0 plate was read using a PerkinElmer Victor 3 plate reader (λex=528 nm, λem=590 nm). The second plate was processed in the same manner 20 h later, and at 44 h the last plate was processed. The minimum cidal concentration (MCC) is defined as the lowest concentration of drug that results in a decrease of resorufin signal over time. For dose–response curves from this assay either a monophasic or a biphasic equation was used, depending on which one provided the best fit. For monophasic fits, the following four-parametric equation [Eq. (1)] was used:
in which A=percent inhibition at bottom, B=percent inhibition at top, C=EC50, D=slope, x=inhibitor concentration, and y=percent inhibition. Equation (2) was used for biphasic fits:
for which A=percent inhibition at mid-plateau, B=slope, C=log[SC EC50(1)], D=log[SC EC50(2)]. Thus SC EC50(1) is the EC50 for the first phase of the curve, and SC EC50(2) is that for the second phase. Inhibition at the bottom of the curve is fixed at 0 % and at the top, 100 %.

[7] = In vivo pharmacokinetics in mice; design: species or system female NMRI mice; conditions: mouse, whole blood, ip, blood; for Tmax: female, NMRI; for AUC(0-t): read-out: AUC(0–8) (converted)
Description: In vivo pharmacokinetics in mice: Compounds 1 and 28 were dosed orally by gavage as a solution at 5 mg free base per kg or 20 mg free base per kg, respectively (dose volume: 5 or 10 mL kg^−1, dose vehicle: 5 % DMSO, 40 % PEG400, 55 % distilled H2O) to female NMRI mice (n=3). Compounds 28, 38, and 56 were dosed as a bolus solution intraperitoneally at 10 (56) or 20 (28 and 38) mg free base per kg (dose volume: 10 mL kg^−1, dose vehicle: 5 % DMSO, 40 % PEG400, 55 % sterile H2O) to female NMRI mice (n=3). Female NMRI mice were chosen, as these represent the sex and strain used for the stage-1 and stage-2 HAT efficacy models. Blood samples were taken from each mouse at 5 (i.p. only), 15 and 30 min, 1, 2, 4, 6 and 8 h post-dose and mixed with two volumes of distilled H2O. After suitable sample preparation, the concentration of each compound in blood was determined by UPLC–MS/MS using a Quattro Premier XE (Waters, USA). Pharmacokinetic parameters were derived from the mean blood concentration time curve using PKsolutions software ver. 2.0 (Summit Research Services, USA).

[8] = static cidal EC50, first site/phase, read-out: SC EC50(1)
[9] = static cidal EC50, second site/phase, read-out: SC EC50(2)

| solubility kinetic [3] [µM] | CLint [4] [mL/min/g] | fraction unbound at 5 h, 10 μg g^−1 [5] | EC50 [6, 8] [nM] | EC50 [6, 9] [nM] | Compound | EC50 ([1]; Trypanosoma brucei) [nM] | EC50 [1] [nM] | EC50 [2] [nM] | MCC [6] [µM] | mode of antiparasitic effect (in words) [6] | other results |
| --- | --- | --- | --- | --- | --- | --- | --- | --- | --- | --- | --- |
| 180 (≈ 53 µg/mL) | 2.7 | 0.11 | 330 | – | O=c1[nH]c2ncc(-c3cccnc3)cc2n1C1CCCCC1 [Compound 55] | 230 | – | > 50000 | > 50 | growth-slowing or static behaviour | fold loss of activity (T. b. brucei EC50) ([1]; relative to the comparator compound): approximately 2 fold |
| > 250 | 3.6 | 0.11 | 70 | > 50000 | O=c1[nH]c2ncc(N3CCCCC3)cc2n1C1CCCCC1 [Compound 56] | 93 | 90 | > 50000 | > 50 | growth-slowing or static behaviour | Tmax ([7]; 10 mg/kg, 10 mg kg^−1, female NMRI mice): 0.25 h; Cmax ([7]; 10 mg kg^−1, female NMRI mice): 580 ng/mL; half-life ([7]; 10 mg kg^−1, female NMRI mice): 0.7 h; AUC(0-t) ([7]; 10 mg kg^−1, female NMRI mice): 883 ng·h/mL |
| 20 (≈ 5.55 µg/mL) | 15 | 0.014 | 80 | 7900 | c1ccc(-c2cnc3[nH]nc(C4CCCCC4)c3c2)cc1 [Compound 60] | 59 | 60 | > 50000 | 17 | cidal behaviour | plateau of dose–response curve (inhibition) [6]: 100 % inhibition |
| 250 (≈ 69.6 µg/mL) | 6.6 | 0.052 | 280 | 6100 | c1cncc(-c2cnc3[nH]nc(C4CCCCC4)c3c2)c1 [Compound 63] | 260 | – | > 50000 | 17 | cidal behaviour | plateau of dose–response curve (inhibition) [6]: 100 % inhibition |

The next lines start with the compound.

| Compound | solubility kinetic [3] [µM] | CLint [4] [mL/min/g] | fraction unbound at 5 h, 10 μg g^−1 [5] | EC50 [6, 8] [nM] | EC50 [6, 9] [nM] | EC50 ([1]; Trypanosoma brucei) [nM] | EC50 [1] [nM] | EC50 [2] [nM] | MCC [6] [µM] | mode of antiparasitic effect (in words) [6] | other results |
| --- | --- | --- | --- | --- | --- | --- | --- | --- | --- | --- | --- |
| O=c1[nH]c2ncc(-c3ccccc3)nc2n1C1CCCCC1 [Compound 19] | 110 (≈ 32.4 µg/mL) | 3.6 | 0.008 | – | – | 40 | 44 | > 50000 | – | – | PPB [5]: 0.8 % free |
| O=c1[nH]c2ncc(-c3cccnc3)nc2n1C1CCCCC1 [Compound 30] | – | 2.8 | 0.023 | 230 | – | 100 | 120 | > 50000 | > 50 | growth-slowing or static behaviour | – |
| O=c1[nH]c2ncc(N3CCCCC3)nc2n1C1CCCCC1 [Compound 31, 1-Cyclohexyl-6-(piperidin-1-yl)-1H-imidazo[4,5-b]pyrazin-2(3H)-one] | – | 15 | – | – | – | 80 | 77 | > 50000 | – | – | PPB [5]: 0 % free |
| O=c1[nH]c2ncc(-c3ccccc3)nc2n1C1CCOCC1 [Compound 38] | 55 (≈ 16.3 µg/mL) | 1.6 | – | – | – | 100 | – | > 50000 | – | – | protein binding (unbound) [5]: 15 % unbound; Tmax ([7]; 20 mg/kg, 20 mg kg^−1, female NMRI mice): 2 h; Cmax ([7]; 20 mg kg^−1, female NMRI mice): 83 ng/mL; half-life ([7]; 20 mg kg^−1, female NMRI mice): 2.2 h; AUC(0-t) ([7]; 20 mg kg^−1, female NMRI mice): 367 ng·h/mL |
| O=c1[nH]c2ncc(-c3ccccc3)cc2n1C1CCCCC1 [Compound 51] | 36 (≈ 10.6 µg/mL) | 5.8 | 0.029 | 20 | 41000 | 54 | 50 | > 50000 | > 50 | growth-slowing or static behaviour | Mode ([6]; static/cidal classification from growth curves): S^[d] |
